Measurements from patent US12540118B2, “Dendrene amide compound, bactericide and use thereof” (Jiangsu Flag Chemical Industry Co., Ltd., priority 2020, dated 2026).

How the values were obtained:
[1] = system: Sphaerotheca fuliginea; experiment: Sphaerotheca fuliginea potting method; assay type: in vivo; settings: Podosphaera fuliginea; 100 mg/L; read-out: Sphaerotheca fuliginea control rating
Procedure: The fungicidal activity of the control agents and target compounds are determined. The test and investigation method refers to SOP-SC-1101 sphaerotheca fuliginea potting method in disinfectant rolls written by KANGZHUO and GUBAOGEN in “Standard operation specification for testing biological activity of pesticides”.

[2] = system: Erysiphe graminis; experiment: Erysiphe graminis potting method; assay type: in vivo; settings: Blumeria graminis, read-out: Erysiphe graminis control rating; for pest or weed control at 100 µg/mL: 100 mg/L; for pest or weed control at 6.25 µg/mL: 6.25 mg/L; for pest or weed control at 25 µg/mL: 25 mg/L
Procedure: The fungicidal activity of the control agents and target compounds are determined. The test and investigation method refers to SOP-SC-1116 Erysiphe graminis potting method in disinfectant rolls written by KANGZHUO and GUBAOGEN in “Standard operation specification for testing biological activity of pesticides”.

[3] = molecular target: T1, succinate dehydrogenase (Sus scrofa, UniProt A5GZW8+D0VWV4+Q007T0); experiment: Enzyme activity assay, succinate dehydrogenase (DCIP reduction); assay type: biochemical, porcine; settings: read-out: Inhibitors (10 μM, SQR)
T1 construct: isolated from porcine hearts; from tissue; host or cells: porcine heart
T1 sequence (Q0QF01 43-664 partner): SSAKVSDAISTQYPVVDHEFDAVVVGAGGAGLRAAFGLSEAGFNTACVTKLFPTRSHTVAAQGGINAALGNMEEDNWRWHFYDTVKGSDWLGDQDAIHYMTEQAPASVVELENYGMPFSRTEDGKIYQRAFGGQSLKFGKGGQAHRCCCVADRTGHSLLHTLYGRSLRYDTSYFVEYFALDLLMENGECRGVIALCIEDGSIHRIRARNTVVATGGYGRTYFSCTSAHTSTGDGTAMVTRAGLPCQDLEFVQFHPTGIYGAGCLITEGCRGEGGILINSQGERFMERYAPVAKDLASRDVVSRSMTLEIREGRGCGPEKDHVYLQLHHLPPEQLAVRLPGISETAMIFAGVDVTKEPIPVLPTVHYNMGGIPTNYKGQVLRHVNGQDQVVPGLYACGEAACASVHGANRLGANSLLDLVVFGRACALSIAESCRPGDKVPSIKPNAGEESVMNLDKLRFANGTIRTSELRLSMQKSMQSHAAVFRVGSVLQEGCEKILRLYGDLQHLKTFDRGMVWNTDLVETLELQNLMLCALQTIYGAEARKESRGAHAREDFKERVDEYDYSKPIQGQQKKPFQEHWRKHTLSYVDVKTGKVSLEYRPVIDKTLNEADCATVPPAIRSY
T1 sequence (Q007T0 29-280): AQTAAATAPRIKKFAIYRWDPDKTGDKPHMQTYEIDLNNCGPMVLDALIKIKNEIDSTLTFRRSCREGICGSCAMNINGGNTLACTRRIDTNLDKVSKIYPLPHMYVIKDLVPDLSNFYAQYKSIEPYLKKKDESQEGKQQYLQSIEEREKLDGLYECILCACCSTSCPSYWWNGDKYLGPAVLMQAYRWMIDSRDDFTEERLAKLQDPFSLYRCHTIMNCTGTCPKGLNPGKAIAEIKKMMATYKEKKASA
T1 sequence (D0VWV4 30-169): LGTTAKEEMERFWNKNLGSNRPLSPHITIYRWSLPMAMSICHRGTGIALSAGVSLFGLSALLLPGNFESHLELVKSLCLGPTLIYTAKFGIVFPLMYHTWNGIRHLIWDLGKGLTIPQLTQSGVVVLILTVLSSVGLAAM
T1 sequence (A5GZW8 57-159 limits assumed): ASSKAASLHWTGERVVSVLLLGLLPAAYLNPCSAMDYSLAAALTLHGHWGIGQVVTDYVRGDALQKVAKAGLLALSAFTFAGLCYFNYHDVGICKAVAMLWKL
Procedure: The inhibitory activities of control agents and target compounds on succinate dehydrogenase are determined.
The enzyme used in this test example is succinate dehydrogenase, which is isolated from porcine hearts.
The test method comprises the following steps: The total volume of the system is 1.8 ml, and the system contained 100 mM Na2HPO4—NaH2PO4 buffer (pH=7.4), 0.3 mM EDTA, 20 mM sodium succinate, 53 μM DCIP (2,6-dichloroindophenol sodium), and 2 nM succinate dehydrogenase. Thermostatic waterbath at 23° C. and magnetic stirring at 600 rpm. The decrease in the light absorption of the substrate DCIP is monitored at a wavelength of 600 nm and experimental points in a linear range are collected. Control substrate consumption not more than 5% of the experimental points. The molar extinction coefficient of DCIP is 21 mM^−1 cm^−1. And calculating the reduction yield of the DCIP in the reaction time, fitting a linear slope, and deducting the baseline slope to obtain the initial reaction speed.

Compound	inhibition at 10 µM [3]	pest or weed control at 100 µg/mL [1]	pest or weed control at 100 µg/mL [2]	pest or weed control at 6.25 µg/mL [2]	pest or weed control at 25 µg/mL [2]
C=C(c1cc(C)ccc1C)C(C)N(C(=O)c1c(C(F)F)nn(C)c1F)C1CC1 (stereo not shown) [Compound 89]	> 90%	80 to 100%	80 to 100%		
Cn1nc(C(F)F)c(C(=O)N(CC(=C(Cl)Cl)c2ccccc2Cl)C2CC2)c1F [Compound 116]	> 90%	80 to 100%	80 to 100%		
C=C(CN(C(=O)c1c(C(F)F)nn(C)c1F)C1CC1)c1ccc(F)cc1F [Compound 23]	> 90%	80 to 100%	80 to 100%		
C=C(CN(C(=O)c1c(C(F)F)nn(C)c1F)C1CC1)c1c(Cl)cc(Cl)cc1Cl [Compound 19]	> 90%	80 to 100%	80 to 100%		
Cc1cccc(C)c1C(CN(C(=O)c1c(C(F)F)nn(C)c1F)C1CC1)=C(Cl)Cl [Compound 142]	> 90%	80 to 100%	80 to 100%		
C=C(c1cccc(OC)c1)C(C)N(C(=O)c1c(C(F)F)nn(C)c1F)C1CC1 (stereo not shown) [Compound 69]	> 90%	80 to 100%	80 to 100%		
C=C(CN(C(=O)c1c(C(F)F)nn(C)c1F)C1CC1)c1ccccc1 [Compound 9]	> 90%	< 70%	80 to 100%		
Cc1ccc(C(C)(C)C)c(C(CN(C(=O)c2c(C(F)F)nn(C)c2F)C2CC2)=C(Cl)Cl)c1 [Compound 146]	> 90%	80 to 100%	80 to 100%		
Cc1ccccc1C(CN(C(=O)c1c(C(F)F)nn(C)c1F)C1CC1)=C(Cl)Cl [Compound 149]	> 90%	80 to 100%	80 to 100%		
Cc1cc(C(C)C)ccc1C(CN(C(=O)c1c(C(F)F)nn(C)c1F)C1CC1)=C(Cl)Cl [Compound 148]	> 90%	80 to 100%	80 to 100%		
Cc1ccc(C(CN(C(=O)c2c(C(F)F)nn(C)c2F)C2CC2)=C(Cl)Cl)c(C)c1 [Compound 140]	> 90%	80 to 100%	80 to 100%		
C=C(CN(C(=O)c1c(C(F)F)nn(C)c1F)C1CC1)c1cccc(S(C)(=O)=O)c1 [Compound 49]	> 90%	80 to 100%	80 to 100%		
Cc1ccc(C(C)(C)C)cc1C(CN(C(=O)c1c(C(F)F)nn(C)c1F)C1CC1)=C(Cl)Cl [Compound 147]	> 90%	80 to 100%	80 to 100%		
Cn1nc(C(F)F)c(C(=O)N(CC(=C(Cl)Cl)c2ccc(Cl)cc2Cl)C2CC2)c1F [Compound 118]	> 90%	80 to 100%	80 to 100%		
C=C(c1ccc(OC)cc1)C(C)N(C(=O)c1c(C(F)F)nn(C)c1F)C1CC1 (stereo not shown) [Compound 61]	> 90%	80 to 100%	80 to 100%		
C=C(c1ccc(Cl)cc1)C(C)N(C(=O)c1c(C(F)F)nn(C)c1F)C1CC1 (stereo not shown) [Compound 59]	> 90%	80 to 100%	80 to 100%		
Cc1ccc(C(C)C)cc1C(CN(C(=O)c1c(C(F)F)nn(C)c1F)C1CC1)=C(Cl)Cl [Compound 144]	> 90%	80 to 100%	80 to 100%		
Cn1nc(C(F)F)c(C(=O)N(CC(=C(Cl)Cl)c2cccc(Br)c2)C2CC2)c1F [Compound 133]	> 90%	80 to 100%	80 to 100%		
C=C(CN(C(=O)c1c(C(F)F)nn(C)c1F)C1CC1)c1cc(C)ccc1C [Compound 34]	> 90%	80 to 100%	80 to 100%	70 to 80%	80 to 100%
C=C(CN(C(=O)c1c(C(F)F)nn(C)c1F)C1CC1)c1ccc(Br)cc1 [Compound 27]	> 90%	80 to 100%	80 to 100%		
C=C(CN(C(=O)c1c(C(F)F)nn(C)c1F)C1CC1)c1ccc(S(C)(=O)=O)cc1Cl [Compound 48]	> 90%	80 to 100%	80 to 100%		
C=C(c1cccc(Cl)c1Cl)C(C)N(C(=O)c1c(C(F)F)nn(C)c1F)C1CC1 (stereo not shown) [Compound 75]	> 90%	80 to 100%	80 to 100%		
C=C(c1c(Cl)cccc1Cl)C(C)N(C(=O)c1c(C(F)F)nn(C)c1F)C1CC1 (stereo not shown) [Compound 73]	> 90%	80 to 100%	80 to 100%		
C=C(c1c(Br)cc(Br)cc1Br)C(C)N(C(=O)c1c(C(F)F)nn(C)c1F)C1CC1 (stereo not shown) [Compound 85]	> 90%	80 to 100%	80 to 100%		
C=C(CN(C(=O)c1c(C(F)F)nn(C)c1F)C1CC1)c1ccc(Cl)cc1 [Compound 17]	> 90%	80 to 100%	80 to 100%		
C=C(CN(C(=O)c1c(C(F)F)nn(C)c1F)C1CC1)c1c(Br)cccc1Br [Compound 30]	> 90%	80 to 100%	80 to 100%		
C=C(CN(C(=O)c1c(C(F)F)nn(C)c1F)C1CC1)c1cc(C)ccc1C(C)C [Compound 38]	> 90%	70 to 80%	80 to 100%	70 to 80%	80 to 100%
Cn1nc(C(F)F)c(C(=O)N(CC(=C(Cl)Cl)c2ccc(Cl)cc2F)C2CC2)c1F [Compound 153]	> 90%	80 to 100%	80 to 100%		

Continued, in another order:

inhibition at 10 µM [3]	Compound	pest or weed control at 100 µg/mL [1]	pest or weed control at 100 µg/mL [2]	pest or weed control at 6.25 µg/mL [2]	pest or weed control at 25 µg/mL [2]
> 90%	Cn1nc(C(F)F)c(C(=O)N(CC(=C(Cl)Cl)c2cc(Cl)ccc2F)C2CC2)c1F [Compound 155]	80 to 100%	80 to 100%		
> 90%	CC(C(=C(Cl)Cl)c1ccccc1S(C)(=O)=O)N(C(=O)c1c(C(F)F)nn(C)c1F)C1CC1 (stereo not shown) [Compound 214]	80 to 100%	80 to 100%		
> 90%	CC(C(=C(Cl)Cl)c1cc(F)ccc1F)N(C(=O)c1c(C(F)F)nn(C)c1F)C1CC1 (stereo not shown) [Compound 180]	80 to 100%	80 to 100%		
> 90%	Cc1cccc(C)c1C(=C(Cl)Cl)C(C)N(C(=O)c1c(C(F)F)nn(C)c1F)C1CC1 (stereo not shown) [Compound 195]	80 to 100%	80 to 100%		
> 90%	CC(C(=C(Cl)Cl)c1c(Cl)cc(Cl)cc1Cl)N(C(=O)c1c(C(F)F)nn(C)c1F)C1CC1 (stereo not shown) [Compound 175]	80 to 100%	80 to 100%		
> 90%	CC(C(=C(Cl)Cl)c1ccc(Cl)cc1Cl)N(C(=O)c1c(C(F)F)nn(C)c1F)C1CC1 (stereo not shown) [Compound 170]	80 to 100%	80 to 100%		
> 90%	CC(C(=C(Cl)Cl)c1cc(Cl)ccc1F)N(C(=O)c1c(C(F)F)nn(C)c1F)C1CC1 (stereo not shown) [Compound 208]	80 to 100%	80 to 100%		
> 90%	Cc1ccccc1C(=C(Cl)Cl)C(C)N(C(=O)c1c(C(F)F)nn(C)c1F)C1CC1 (stereo not shown) [Compound 202]	80 to 100%	80 to 100%		
> 90%	C=C(c1ccc(F)cc1)C(C)N(C(=O)c1c(C(F)F)nn(C)c1F)C1CC1 (stereo not shown) [Compound 68]	80 to 100%	80 to 100%		
> 90%	CCS(=O)(=O)c1cccc(C(=C(Cl)Cl)C(C)N(C(=O)c2c(C(F)F)nn(C)c2F)C2CC2)c1 (stereo not shown) [Compound 217]	80 to 100%	80 to 100%		
> 90%	CC(C(=C(Cl)Cl)c1cc(S(C)(=O)=O)ccc1Cl)N(C(=O)c1c(C(F)F)nn(C)c1F)C1CC1 (stereo not shown) [Compound 215]	80 to 100%	80 to 100%		
> 90%	Cc1ccc(C(C)(C)C)c(C(=C(Cl)Cl)C(C)N(C(=O)c2c(C(F)F)nn(C)c2F)C2CC2)c1 (stereo not shown) [Compound 199]	80 to 100%	80 to 100%		
> 90%	C=C(c1cc(Cl)ccc1F)C(C)N(C(=O)c1c(C(F)F)nn(C)c1F)C1CC1 (stereo not shown) [Compound 99]	80 to 100%	80 to 100%		
